Test results from PubChem BioAssay AID1845201 (Molecular Pharmacology Branch, DTP, NCI, 2023).
“And” between values parts separate entries of the source, which are not always exact repeats. Equal values may be shown once.

Test system: COR L88 complex tumor spheroid viability
Assay: Anticancer human tumor COR L88 cell line growth inhibition;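 note: compound exposure lasted 7 days before viability readout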;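 for viability, T/C: percent of DMSO vehicle-treated spheroids = 100%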
Conditions: for viability, T/C: stronger effect = lower value
Procedure, shortened: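 Single agents and combinations were tested on spheroids built from tumor cells plus HUVEC and hMSC, at half-log dilutions starting at or near clinical Cmax, else 10 microM; final DMSO 0.25% (v/v).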

## CNCc1ccc(-c2cc(-c3nc(-c4ccc(S(=O)(=O)C(C)C)cc4)cnc3N)on2)cc1 + Cn1nnc2c(C(N)=O)ncn2c1=O
Curve of first compound, second compound 1 µM
  IC50: 618 nM
Curve of first compound, second compound 3.16 µM
  IC50: 639 nM
Curve of first compound, second compound 10 µM
  IC50: 463 nM
Curve of first compound, second compound 31.6 µM
  IC50: 448 nM
Curve of first compound, second compound 100 µM
  IC50: 386 nM
Second compound 1 µM, first compound 0.00949 µM
  viability, T/C: 99.9%
Second compound 1 µM, first compound 0.03 µM
  viability, T/C: 97.6%
Second compound 1 µM, first compound 0.0949 µM
  viability, T/C: 102%
Second compound 1 µM, first compound 0.3 µM
  viability, T/C: 72.1%
Second compound 1 µM, first compound 0.949 µM
  viability, T/C: 36.8%
Second compound 1 µM, first compound 3 µM
  viability, T/C: 12.9%
Second compound 3.16 µM, first compound 0.00949 µM
  viability, T/C: 92.9%
Second compound 3.16 µM, first compound 0.03 µM
  viability, T/C: 107%
Second compound 3.16 µM, first compound 0.0949 µM
  viability, T/C: 112%
Second compound 3.16 µM, first compound 0.3 µM
  viability, T/C: 81.3%
Second compound 3.16 µM, first compound 0.949 µM
  viability, T/C: 33.6%
Second compound 3.16 µM, first compound 3 µM
  viability, T/C: 11%
Second compound 10 µM, first compound 0.00949 µM
  viability, T/C: 87.4%
Second compound 10 µM, first compound 0.03 µM
  viability, T/C: 99.7%
Second compound 10 µM, first compound 0.0949 µM
  viability, T/C: 95.3%
Second compound 10 µM, first compound 0.3 µM
  viability, T/C: 63.8%
Second compound 10 µM, first compound 0.949 µM
  viability, T/C: 25.9%
Second compound 10 µM, first compound 3 µM
  viability, T/C: 10.8%
Second compound 31.6 µM, first compound 0.00949 µM
  viability, T/C: 80.7%
Second compound 31.6 µM, first compound 0.03 µM
  viability, T/C: 90.9%
Second compound 31.6 µM, first compound 0.0949 µM
  viability, T/C: 101%
Second compound 31.6 µM, first compound 0.3 µM
  viability, T/C: 62.5%
Second compound 31.6 µM, first compound 0.949 µM
  viability, T/C: 25.1%
Second compound 31.6 µM, first compound 3 µM
  viability, T/C: 11.2%
Second compound 100 µM, first compound 0.00949 µM
  viability, T/C: 78.3%
Second compound 100 µM, first compound 0.03 µM
  viability, T/C: 81%
Second compound 100 µM, first compound 0.0949 µM
  viability, T/C: 76.5%
Second compound 100 µM, first compound 0.3 µM
  viability, T/C: 58%
Second compound 100 µM, first compound 0.949 µM
  viability, T/C: 21.3%
Second compound 100 µM, first compound 3 µM
  viability, T/C: 9.59%

## Cc1cc(C)c(CNC(=O)c2cc(-c3ccc(CN4CCOCC4)cc3)cc3c2cnn3C2CCCC2)c(=O)[nH]1
Compound 0.0316 µM
  viability, T/C: 92.8% and 89.3% and 93.7%
Compound 0.1 µM
  viability, T/C: 102% and 98.3% and 89.8%
Compound 0.316 µM
  viability, T/C: 101% and 100% and 96.4%
Compound 1 µM
  viability, T/C: 84.1% and 93.3% and 95.8%
Compound 3.16 µM
  viability, T/C: 85.2% and 88.7% and 77.4%
Compound 10 µM
  viability, T/C: 44.7% and 56.8% and 52.6%
Curve of compound
  IC50: 8670 nM and > 10000 nM
